The text below walks through data of patent US20200000755A1, “TREATMENT OF INFLAMMATORY DISORDERS IN NON-HUMAN MAMMALS” (THE REGENTS OF THE UNIVERSITY OF CALIFORNIA, priority 2012, published 2020).

One data set concerns the target T1, sEH (Homo sapiens, UniProt P34913).
T1 sequence (P34913 1-555): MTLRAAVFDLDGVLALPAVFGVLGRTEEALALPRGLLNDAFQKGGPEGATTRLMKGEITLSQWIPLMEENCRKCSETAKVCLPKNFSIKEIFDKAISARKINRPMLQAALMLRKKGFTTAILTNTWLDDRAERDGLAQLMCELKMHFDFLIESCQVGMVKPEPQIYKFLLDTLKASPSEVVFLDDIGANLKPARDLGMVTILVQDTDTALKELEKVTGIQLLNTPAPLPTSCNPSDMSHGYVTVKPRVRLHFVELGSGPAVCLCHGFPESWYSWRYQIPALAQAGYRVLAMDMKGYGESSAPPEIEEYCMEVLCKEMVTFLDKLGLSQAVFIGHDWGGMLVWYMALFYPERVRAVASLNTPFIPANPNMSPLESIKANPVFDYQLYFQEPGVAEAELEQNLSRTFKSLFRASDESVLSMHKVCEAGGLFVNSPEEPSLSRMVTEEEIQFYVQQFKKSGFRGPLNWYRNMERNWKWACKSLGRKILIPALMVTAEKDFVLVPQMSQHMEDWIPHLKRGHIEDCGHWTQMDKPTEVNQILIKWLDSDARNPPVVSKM
Briefly: Activity as inhibitor of sEH (general statements). Type of data set: biochemical. From the text: Derivatives of urea are transition state mimetics that form a preferred group of sEH inhibitors. […] Any particular urea derivative or other compound can be easily tested for its ability to inhibit sEH by standard assays, such as those discussed herein. The production and testing of urea and carbamate derivatives as sEH inhibitors is set forth in detail in, for example, Morisseau et al., Proc Natl Acad Sci (USA) 96:8849-8854 (1999).
One category of these inhibitors comprises inhibitors that mimic the substrate for the enzyme. The lipid alkoxides (e.g., the 9-methoxide of stearic acid) are an exemplar of this group of inhibitors.

A further data set deals with COX-1 and COX-2. The note with it: cited from earlier work.
In a further data set the target is Sheep sEH (Ovis aries, UniProt A0ACI6PZ20). Briefly: sEH inhibitor screen of domestic animals, radioactive assay, liver cytosolic preparation. The format is biochemical.
For data set [1] the following is noted: Thoroughbred, horse, in vivo, iv, 0.1 mg/kg.
For data set [2] the following is noted: horse, in vivo, iv, 0.1 mg/kg, 5 days.
For a further data set, the target named is T2, Canine sEH (Canis lupus familiaris, UniProt A0A8I3NJL8).
T2 sequence (A0A8I3NJL8 1-556): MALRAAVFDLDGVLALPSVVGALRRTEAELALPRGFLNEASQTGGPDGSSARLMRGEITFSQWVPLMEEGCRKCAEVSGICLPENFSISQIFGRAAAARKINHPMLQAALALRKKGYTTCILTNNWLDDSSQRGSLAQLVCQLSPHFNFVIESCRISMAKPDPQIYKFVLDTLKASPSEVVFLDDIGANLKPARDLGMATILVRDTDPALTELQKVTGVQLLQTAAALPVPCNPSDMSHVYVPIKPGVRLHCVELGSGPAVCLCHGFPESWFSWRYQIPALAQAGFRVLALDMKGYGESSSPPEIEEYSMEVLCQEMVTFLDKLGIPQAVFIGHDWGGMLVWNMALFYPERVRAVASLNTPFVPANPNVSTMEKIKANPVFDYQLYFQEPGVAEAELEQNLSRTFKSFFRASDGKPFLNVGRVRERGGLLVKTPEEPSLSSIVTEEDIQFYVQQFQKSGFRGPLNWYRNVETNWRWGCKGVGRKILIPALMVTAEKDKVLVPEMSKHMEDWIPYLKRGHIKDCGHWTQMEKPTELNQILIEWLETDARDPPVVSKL
Nature of the data set: sEH inhibitor screen of canine sEH. The format is biochemical.

Data set [3] in a line: Plasma concentrations and pharmacokinetics in the laminitic horse. The note with it: phenylbutazone 3-4 mg/kg BID PO, gabapentin 20 mg/kg BID PO.

Molecules are shown by their SMILES. pIC50: −log10 of the molar value. Some results are limits rather than exact numbers.

A word on the pIC50: it is the IC50 on a negative log10 scale, so that one unit is a factor of ten.

Chain of Sheep sEH (A0ACI6PZ20 entry or part of it): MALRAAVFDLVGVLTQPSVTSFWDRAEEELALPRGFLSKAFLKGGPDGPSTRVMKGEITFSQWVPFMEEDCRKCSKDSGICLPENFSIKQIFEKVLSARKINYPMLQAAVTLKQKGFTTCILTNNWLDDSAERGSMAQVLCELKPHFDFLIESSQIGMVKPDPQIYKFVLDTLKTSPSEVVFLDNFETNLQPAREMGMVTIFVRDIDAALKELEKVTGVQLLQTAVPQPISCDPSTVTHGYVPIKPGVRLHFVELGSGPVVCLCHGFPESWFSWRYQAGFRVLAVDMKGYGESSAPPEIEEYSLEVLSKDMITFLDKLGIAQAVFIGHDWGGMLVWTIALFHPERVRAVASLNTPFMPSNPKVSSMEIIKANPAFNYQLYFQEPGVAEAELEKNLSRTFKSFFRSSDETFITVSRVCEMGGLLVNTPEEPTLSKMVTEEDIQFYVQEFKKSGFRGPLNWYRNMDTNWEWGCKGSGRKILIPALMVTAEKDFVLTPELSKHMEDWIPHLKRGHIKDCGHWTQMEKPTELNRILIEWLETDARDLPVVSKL

As for `CCCCCCCCCCCCNC(=O)NC12CC3CC(CC(C3)C1)C2` [ADU, N-Adamantyl-N′-dodecyl urea], the “activity on sEH” value at sEH is given as “particularly high activity on sEH”.
For `CC(=O)Oc1ccccc1C(=O)O` [Aspirin], the “COX-2 (IC50)/COX-1 (IC50) ratio” value in the data set with COX-1 and COX-2 was 0.32.
As to `CS(=O)(=O)N1CCC(NC(=O)Nc2ccc(OC(F)(F)F)cc2)CC1` [compound 1709, 1-(1-methylsulfonyl-piperidin-4-yl)-3-(4-trifluoromethoxy-phenyl)-urea], the pIC50 at Sheep sEH was 7.52.
Regarding `O=C(Nc1ccc(OC(F)(F)F)cc1)N[C@H]1CC[C@H](Oc2ccc(C(=O)O)cc2)CC1` [compound 1728, trans-4-{4-[3-(4-Trifluoromethoxy-phenyl)-ureido]-cyclohexyloxy}-benzoic acid], in data set [1], the “daily plasma concentration, peak (did not reach)” value was less than 2.5 µM and the “daily plasma concentration, trough (fell below on one occasion in the first day)” value is on record as “below 30 nM”. For the same molecule, the “adverse effects in clinical exams and blood work” value in data set [2] is “No adverse effects were observed”.
For `CCS(=O)(=O)N1CCC(NC(=O)Nc2ccc(OC(F)(F)F)cc2)CC1` [compound 2213, 1-(1-ethylsulfonyl-piperidin-4-yl)-3-(4-trifluoromethoxy-phenyl)-urea], the pIC50 at Sheep sEH was 7.48.
Take `O=C(Nc1ccc(OC(F)(F)F)cc1)NC1CCN(C(=O)C2CC2)CC1` [compound 2214, 1-(1-(cyclopropanecarbonyl)piperidin-4-yl)-3-(4-(trifluoromethoxy)phenyl)urea]: on Sheep sEH, the pIC50 was 7.74.
Turning to `CS(=O)(=O)NC(=O)c1ccc(O[C@H]2CC[C@H](NC(=O)Nc3ccc(OC(F)(F)F)cc3)CC2)cc1` [compound 2728, N-(methylsulfonyl)-4-(trans-4-(3-(4-trifluoromethoxy-phenyl)-ureido)-cyclohexyloxy)-benzamide], the pIC50 against Canine sEH was 7.00.
For `O=C(Nc1ccccc1F)N[C@H]1CC[C@H](Oc2ccc(C(=O)O)cc2)CC1` [compound 2736, 4-(trans-4-(3-(2-fluorophenyl)-ureido)-cyclohexyloxy)-benzoic acid], the pIC50 against Canine sEH is 7.41.
Same read-out and setting: as for `Cc1oc(=O)oc1COC(=O)c1ccc(O[C@H]2CC[C@H](NC(=O)Nc3ccc(OC(F)(F)F)cc3)CC2)cc1` [compound 2796, (5-methyl-2-oxo-1,3-dioxol-4-yl)methyl 4-((1r,4r)-4-(3-(4-(trifluoromethoxy)-phenyl)-ureido)-cyclohexyloxy)-benzoate], the figure is 7.42; as for `O=C(Nc1ccc(Oc2ccc(C(=O)O)cc2)cc1)Nc1ccc(OC(F)(F)F)cc1` [compound 2803, 4-(4-(3-(4-(trifluoromethoxy)-phenyl)-ureido)-phenoxy)-benzoic acid], 7.38; as for `O=C(Nc1ccc(OC(F)F)cc1)N[C@H]1CC[C@H](Oc2ccc(C(=O)O)cc2)CC1` [compound 2805, 4-(trans-4-(3-(4-(difluoromethoxy)-phenyl)-ureido)-cyclohexyloxy)-benzoic acid], 7.72.
On the same count and under the same terms, as for `O=C(Nc1ccc(OC(F)(F)F)cc1)N[C@H]1CC[C@H](Oc2ccc(-c3nnn[nH]3)cc2)CC1` [compound 2806, 1-(trans-4-(4-(1H-tetrazol-5-yl)-phenoxy)-cyclohexyl)-3-(4-(trifluoromethoxy)-phenyl)-urea], the figure is greater than 9.00; as for `O=C(Nc1ccc(OC(F)(F)F)cc1)Nc1ccc(Oc2ccc(C(=O)O)cc2)cc1F` [compound 2807, 4-(3-fluoro-4-(3-(4-(trifluoromethoxy)-phenyl)-ureido)-phenoxy)-benzoic acid], 7.85.
On to `NCC1(CC(=O)O)CCCCC1` [gabapentin], for which the “highest measured plasma concentration” value in data set [3] was 18 µM.
As for `COc1ccc2c(c1)c(CC(=O)O)c(C)n2C(=O)c1ccc(Cl)cc1` [indomethacin], the “COX-2 (IC50)/COX-1 (IC50) ratio” value with COX-1 and COX-2 is on record as 33.
